Experimental findings from patent publication US10100064B2, “Purine inhibitors of human phosphatidylinositol 3-kinase delta” (Merck Sharp & Dohme Corp., priority 2014, dated 2018) are described below.

As usually defined, the pIC50 is the negative decadic logarithm of the IC50, by convention in mol/L.

One experiment deals with T1, PI3Kdelta (Homo sapiens, UniProt O00329).
T1 construct: purchased Upstate; Millipore 14-604
Put plainly: HTRF PI3K biochemical assay, delta isoform. To be noted: 0.3 nM enzyme, 100 uM ATP, 5 uM PIP2, form screened (Neutral or TFA salt) given per compound. From the text: (§1) HTRF PI3K Biochemical Assay to Measure Intrinsic Potency of Compound Inhibitors
(§2) The PI3-Kinase biochemical assays were developed to measure the intrinsic potency and compound dependent inhibition of the alpha, beta, delta, and gamma PI3K isoform enzymes. This assay was developed and further optimized from a kit produced by Upstate (Millipore catalog #33-047) and has been configured for HTS and SAR screening. Briefly, this procedure exploits the exquisite specificity and high affinity binding of […] phosphatidyl(3,4,5)triphosphate (PIP3) to the GRP1 pleckstrin homology (PH) domain to generate the signal. In the absence of PIP3, an HTRF (Homogeneous Time-Resolved Fluorescence energy transfer) complex is formed consisting of europium (Eu)-labeled anti-GST, GSTtagged GRP1-PH domain, biotin-PIP3 and streptavidin conjugated APC. The native PIP3 produced by PI3-Kinase activity disrupts in a competitive manner the biotin-PIP3 from the PH domain, resulting in the loss of energy transfer (HTRF complex) and a decrease in the signal. The format of this assay is the same for all 4 isoforms of PI3K; the differences lie in the concentration of enzyme used to achieve robust assay window. The alpha, beta, and delta assays are run at 0.5, 1, and 0.3 nM enzymes and the gamma assay is run at 5 nM enzyme. The ATP concentration is 100 uM in the alpha, beta, and delta assays and 50 uM ATP in the gamma assay. All reactions are run at 5 uM PIP2.
(§3) Compounds are serially diluted (3-fold in 100% DMSO) across a 384-well polypropylene source plated from column 3 to column 12 and column 13 to column 22, to yield 10 concentration dose response for each test compound. Columns 1, 2, 23 and 24 contain either only DMSO or pharmacological known control inhibitor. Once titrations are made, 2.5 nL of the compounds on 384 well plates are reformatted and transferred by acoustic dispense in quadruplicates to a 1536 assay plate (Greiner) to assay across all four PI3K isoform enzymes.
(§4) The PI3-Kinase biochemical assay was optimized using the HTRF kit provided by Upstate (Millipore). The assay kit contains six reagents: 1) 4× Reaction Buffer; 2) native PIP2 (substrate); 3) Stop (EDTA); 4) Detection Mix A (Streptavidin-APC); 5) Detection Mix B (Eu-labeled Anti-GST plus GST-tagged PH-domain); 6) Detection Mix C. In addition, the following items were obtained or purchased; PI3Kinase (alpha 14-602, beta 14-603, gamma 14-558 and delta 14-604 from Upstate; Millipore), dithiothreitol (Sigma, D-5545), Adenosine-5′ triphosphate (InVitrogen, Cat#AS001A), native PIP3 (PI(3,4,5)P3, diC8, H^+, CELLSIGNALS, INC. Cat #907) DMSO (Sigma, 472301).
(§5) PI3Kinase Reaction Buffer is prepared by dilution the stock 1:4 with de-ionized water. DTT, PIP2 and Biotin-PIP3 were added to 1536 assay plate at a final concentration of 5 mM, […] 25 nM on the day of use. Enzyme addition and compound pre-incubation are initiated by the addition of 1.25 ul of PI3K (at twice its final concentration) in the 1× reaction buffer to all wells using a BioRaptor. Plates are incubated at room temperature for 15 minutes. Reactions are initiated by addition of 1.25 ul of 2× substrate solution (PIP2 and ATP in 1× reaction buffer) using BioRaptor. Plates are incubated in humidified chamber at room temperature for one hour. Reactions are quenched by addition of 0.625 uL of stop solution to all wells using the BioRaptor. The quenched reactions are then processed to detect product formation by adding 0.625 uL of Detection Solution to all wells using the BioRaptor (Detection mix C, Detection Mix A, and Detection Mix B combined together in an 18:1:1 ratio prepared 2 hours prior to use). Following a one hour incubation in the dark, the HTRF signal is measured on the Envision plate reader set for 330 nm excitation and dual emission detection at […]. […]

The next experiment addresses T2, PI3Kalpha (Homo sapiens, UniProt P42336).
T2 construct: purchased Upstate; Millipore 14-602
Put plainly: HTRF PI3K biochemical assay, alpha isoform (selectivity versus delta). The following applies: relative ratio PI3K-alpha IC50 value / PI3K-delta IC50 value.
From the text: as §1, §2, §3, §4, §5

pIC50: −log10 of the molar value.

T2 sequence (P42336 whole entry): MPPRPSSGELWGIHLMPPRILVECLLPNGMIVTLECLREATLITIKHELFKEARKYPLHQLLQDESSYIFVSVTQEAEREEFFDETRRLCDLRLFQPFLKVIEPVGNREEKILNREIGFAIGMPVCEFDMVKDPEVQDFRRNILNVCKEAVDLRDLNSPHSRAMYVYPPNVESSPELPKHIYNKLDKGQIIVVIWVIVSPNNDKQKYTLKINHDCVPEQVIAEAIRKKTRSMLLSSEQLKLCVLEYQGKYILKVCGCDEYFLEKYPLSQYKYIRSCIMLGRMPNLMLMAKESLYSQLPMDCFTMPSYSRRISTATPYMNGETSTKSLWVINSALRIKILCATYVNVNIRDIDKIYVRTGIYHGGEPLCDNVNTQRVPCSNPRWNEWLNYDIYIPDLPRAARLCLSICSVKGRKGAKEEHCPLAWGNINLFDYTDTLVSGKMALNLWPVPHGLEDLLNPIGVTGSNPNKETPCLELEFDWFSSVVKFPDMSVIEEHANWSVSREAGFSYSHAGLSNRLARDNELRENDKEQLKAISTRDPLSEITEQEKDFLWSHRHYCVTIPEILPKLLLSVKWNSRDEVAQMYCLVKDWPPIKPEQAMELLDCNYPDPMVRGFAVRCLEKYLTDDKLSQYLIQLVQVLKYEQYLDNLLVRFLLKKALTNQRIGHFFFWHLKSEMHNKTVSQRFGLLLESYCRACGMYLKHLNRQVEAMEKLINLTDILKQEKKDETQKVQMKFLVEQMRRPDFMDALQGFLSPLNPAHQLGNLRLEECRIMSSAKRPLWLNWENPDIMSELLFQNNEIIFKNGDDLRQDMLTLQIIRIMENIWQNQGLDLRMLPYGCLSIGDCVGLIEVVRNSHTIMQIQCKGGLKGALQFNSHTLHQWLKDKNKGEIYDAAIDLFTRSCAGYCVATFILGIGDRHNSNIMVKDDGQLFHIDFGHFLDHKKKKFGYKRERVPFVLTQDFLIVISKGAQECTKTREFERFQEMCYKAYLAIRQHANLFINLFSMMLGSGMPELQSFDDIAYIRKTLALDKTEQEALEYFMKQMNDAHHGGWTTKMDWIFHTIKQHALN
T2 sequence (P27986 whole entry partner): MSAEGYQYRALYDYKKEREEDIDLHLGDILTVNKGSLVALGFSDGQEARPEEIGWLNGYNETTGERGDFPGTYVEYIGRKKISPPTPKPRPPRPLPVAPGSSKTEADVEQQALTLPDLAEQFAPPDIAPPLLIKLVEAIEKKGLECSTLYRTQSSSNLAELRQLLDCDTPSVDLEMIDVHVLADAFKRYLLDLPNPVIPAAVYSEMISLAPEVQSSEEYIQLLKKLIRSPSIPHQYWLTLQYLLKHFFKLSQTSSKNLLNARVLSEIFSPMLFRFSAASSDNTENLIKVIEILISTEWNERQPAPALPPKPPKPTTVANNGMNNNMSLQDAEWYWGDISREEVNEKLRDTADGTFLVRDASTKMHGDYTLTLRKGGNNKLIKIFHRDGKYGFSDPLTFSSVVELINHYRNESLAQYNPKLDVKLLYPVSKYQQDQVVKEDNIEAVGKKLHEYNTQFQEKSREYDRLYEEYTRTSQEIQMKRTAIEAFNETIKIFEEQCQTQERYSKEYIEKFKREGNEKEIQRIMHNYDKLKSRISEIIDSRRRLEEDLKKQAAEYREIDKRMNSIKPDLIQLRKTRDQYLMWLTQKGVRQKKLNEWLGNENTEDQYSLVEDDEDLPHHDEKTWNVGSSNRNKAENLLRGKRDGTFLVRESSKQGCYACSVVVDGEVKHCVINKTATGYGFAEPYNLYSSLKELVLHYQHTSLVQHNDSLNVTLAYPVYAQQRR
T1 sequence (O00329 whole entry): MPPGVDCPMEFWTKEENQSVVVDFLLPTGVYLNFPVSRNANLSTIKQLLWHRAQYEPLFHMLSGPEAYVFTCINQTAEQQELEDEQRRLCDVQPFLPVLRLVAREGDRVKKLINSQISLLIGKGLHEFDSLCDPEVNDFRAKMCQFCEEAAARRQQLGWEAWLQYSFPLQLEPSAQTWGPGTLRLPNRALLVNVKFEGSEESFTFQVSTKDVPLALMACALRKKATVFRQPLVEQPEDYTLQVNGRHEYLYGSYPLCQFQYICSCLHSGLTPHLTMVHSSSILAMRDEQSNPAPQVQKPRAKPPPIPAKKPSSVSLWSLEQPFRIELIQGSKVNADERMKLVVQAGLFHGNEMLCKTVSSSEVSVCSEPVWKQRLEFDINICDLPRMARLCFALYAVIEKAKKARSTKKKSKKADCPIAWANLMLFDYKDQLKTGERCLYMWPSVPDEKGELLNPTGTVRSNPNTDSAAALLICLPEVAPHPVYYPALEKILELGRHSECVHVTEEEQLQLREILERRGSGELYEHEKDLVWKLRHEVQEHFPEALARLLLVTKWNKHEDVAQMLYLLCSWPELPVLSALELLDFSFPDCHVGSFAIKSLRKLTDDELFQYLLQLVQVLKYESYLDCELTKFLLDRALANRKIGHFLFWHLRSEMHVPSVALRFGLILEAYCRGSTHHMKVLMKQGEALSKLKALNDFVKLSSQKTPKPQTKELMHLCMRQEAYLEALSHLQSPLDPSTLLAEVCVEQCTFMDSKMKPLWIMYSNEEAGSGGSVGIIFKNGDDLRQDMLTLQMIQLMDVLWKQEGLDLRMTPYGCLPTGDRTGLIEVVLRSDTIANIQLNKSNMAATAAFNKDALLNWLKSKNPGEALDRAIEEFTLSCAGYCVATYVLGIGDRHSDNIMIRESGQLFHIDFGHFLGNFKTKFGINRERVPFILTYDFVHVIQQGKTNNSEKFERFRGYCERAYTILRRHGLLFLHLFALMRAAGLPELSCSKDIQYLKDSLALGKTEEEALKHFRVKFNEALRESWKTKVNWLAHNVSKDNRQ
T1 sequence (P27986 whole entry partner): as the sequence (P27986 whole entry partner) above

`CCn1c(C(F)F)nc2c(NC3CCc4nnc(C(C)C)n4C3)ncnc21` (single isomer, unassigned) [Compound 1-8, (S or R)-8-(difluoromethyl)-9-ethyl-N-[3-(1-methylethyl)-5,6,7,8-tetrahydro[1,2,4]triazolo[4,3-a]pyridin-6-yl]-9H-purin-6-amine]: the pIC50 at PI3Kdelta was 6.34. Further, the “Selectivity versus PI3Kalpha” value on PI3Kalpha is reported as above 10.

`CCn1c(C(F)F)nc2c(NC3CCc4nnc(C(C)C)n4C3)ncnc21` (single isomer, unassigned) [Compound 1-9, (S or R)-8-(difluoromethyl)-9-ethyl-N-[3-(1-methylethyl)-5,6,7,8-tetrahydro[1,2,4]triazolo[4,3-a]pyridin-6-yl]-9H-purin-6-amine]: the pIC50 on PI3Kdelta is 7.80. Also, the “Selectivity versus PI3Kalpha” value at PI3Kalpha was above 10.

Turning to `CCn1c(-c2ccc(C(F)(F)F)nc2)nc2c(NC3CCc4nnc(C(C)C)n4C3)ncnc21` (single isomer, unassigned) [Compound 1-18, (S or R)-9-ethyl-N-[3-(1-methylethyl)-5,6,7,8-tetrahydro[1,2,4]triazolo[4,3-a]pyridin-6-yl]-8-[6-(trifluoromethyl)pyridin-3-yl]-9H-purin-6-amine], the pIC50 at PI3Kdelta is above 9.00. For the same compound, the “Selectivity versus PI3Kalpha” value at PI3Kalpha is reported as above 10.

Consider `CCn1c(-c2ccc(C(F)(F)F)nc2)nc2c(NC3CCc4nnc(C(C)C)n4C3)ncnc21` (single isomer, unassigned) [Compound 1-19, (S or R)-9-ethyl-N-[3-(1-methylethyl)-5,6,7,8-tetrahydro[1,2,4]triazolo[4,3-a]pyridin-6-yl]-8-(6-(trifluoromethyl)pyridin-3-yl]-9H-purin-6-amine], for which the pIC50 at PI3Kdelta is 7.51. In addition, the “Selectivity versus PI3Kalpha” value at PI3Kalpha was above 10.

As to `CCn1c(-c2ccc(C(F)(F)F)cc2)nc2c(NC3CCc4nnc(C(C)C)n4C3)ncnc21` (single isomer, unassigned) [Compound 1-20, (S or R)-9-ethyl-N-[(6S)-3-(1-methylethyl)-5,6,7,8-tetrahydro[1,2,4]triazolo[4,3-a]pyridin-6-yl]-8-[4-(trifluoromethyl)phenyl]-9H-purin-6-amine], the pIC50 at PI3Kdelta is above 9.00. For the same compound, the “Selectivity versus PI3Kalpha” value at PI3Kalpha is above 10.

As to `CCn1c(-c2cnc(OC)c(F)c2)nc2c(NC3CCc4nnc(C(C)C)n4C3)ncnc21` (single isomer, unassigned) [Compound 1-21, (S or R)-9-ethyl-8-(5-fluoro-6-methoxypyridin-3-yl)-N-[3-(1-methylethyl)-5,6,7,8-tetrahydro[1,2,4]triazolo[4,3-a]pyridin-6-yl]-9H-purin-6-amine], the pIC50 on PI3Kdelta is above 9.00. Moreover, the “Selectivity versus PI3Kalpha” value on PI3Kalpha is given as above 10.

For `CCn1c(-c2cnc(OC)c(Cl)c2)nc2c(NC3CCc4nnc(C(C)C)n4C3)ncnc21` (single isomer, unassigned) [Compound 1-22, (S or R)-8-(5-chloro-6-methoxypyridin-3-yl)-9-ethyl-N-[3-(1-methylethyl)-5,6,7,8-tetrahydro[1,2,4]triazolo[4,3-a]pyridin-6-yl]-9H-purin-6-amine], the pIC50 at PI3Kdelta was 6.66. Further, the “Selectivity versus PI3Kalpha” value at PI3Kalpha is above 10.

For `CCn1c(-c2cnn(-c3ccccc3)c2)nc2c(NC3CCc4nnc(C(C)C)n4C3)ncnc21` (single isomer, unassigned) [Compound 1-23, (S or R)-9-ethyl-N-[3-(1-mtthylethyl)-5,6,7,8-tetrahydro[1,2,4]triazolo[4,3-a]pyridin-6-yl]-8-(1-phenyl-1H-pyrazol-4-yl)-9H-purin-6-amine], at PI3Kdelta, the pIC50 was above 9.00. In addition, the “Selectivity versus PI3Kalpha” value at PI3Kalpha was above 10.

On to `CCn1c(-c2ccc(C(F)F)cc2)nc2c(NC3CCc4nnc(C(C)C)n4C3)ncnc21` (single isomer, unassigned) [Compound 1-24, 8-[4-(difluoromethyl)phenyl]-9-ethyl-N-[(6(S or R))-3-(1-methylethyl)-5,6,7,8-tetrahydro[1,2,4]triazolo[4,3-a]pyridin-6-yl]-9H-purin-6-amine], for which the pIC50 on PI3Kdelta was 8.46. On PI3Kalpha, the “Selectivity versus PI3Kalpha” value is reported as above 10.

Turning to `CCn1c(-n2cnc(C(F)(F)F)c2)nc2c(NC3CCc4nnc(C(C)C)n4C3)ncnc21` (single isomer, unassigned) [Compound 1-25, 9-ethyl-N-[(6(S or R))-3-(1-methylethyl)-5,6,7,8-tetrahydro[1,2,4]triazolo[4,3-a]pyridin-6-yl]-8-[4-(trifluoromethyl)-1H-imidazol-1-yl]-9H-purin-6-amine], the pIC50 on PI3Kdelta was 7.62. Besides, the “Selectivity versus PI3Kalpha” value at PI3Kalpha is given as above 10.

In the case of `CCn1c(I)nc2c(NC3CCc4nnc(C5CC5)n4C3)ncnc21` (single isomer, unassigned) [Compound 1-26, (S or R)-N-[3-cyclopropyl-5,6,7,8-tetrahydro[1,2,4]triazolo[4,3-a]pyridin-6-yl]-9-ethyl-8-iodo-9H-purin-6-amine], the pIC50 at PI3Kdelta is 7.92. In addition, on PI3Kalpha, the “Selectivity versus PI3Kalpha” value was above 10.

Turning to `CCn1c(I)nc2c(NC3CCc4nnc(C5CC5)n4C3)ncnc21` (single isomer, unassigned) [Compound 1-27, (S or R)-N-[3-cyclopropyl-5,6,7,8-tetrahydro[1,2,4]triazolo[4,3-a]pyridin-6-yl]-9-ethyl-8-iodo-9H-purin-6-amine], the pIC50 at PI3Kdelta is 6.82. The “Selectivity versus PI3Kalpha” value at PI3Kalpha is listed as above 10.

`CCn1c(-c2ccc(C(F)(F)F)cc2)nc2c(NC3CCc4nnc(C5CC5)n4C3)ncnc21` (single isomer, unassigned) [Compound 1-28, (S or R)-N-(3-cyclopropyl-5,6,7,8-tetrahydro[1,2,4]triazolo[4,3-a]pyridin-6-yl)-9-ethyl-8-[4-(trifluoromethyl)phenyl]-9H-purin-6-amine]: the pIC50 on PI3Kdelta was 8.85. The “Selectivity versus PI3Kalpha” value at PI3Kalpha was above 10.

Consider `CCn1c(-c2ccc(C(F)(F)F)cc2)nc2c(NC3CCc4nnc(C5CC5)n4C3)ncnc21` (single isomer, unassigned) [Compound 1-29, (S or R)-N-(3-cyclopropyl-5,6,7,8-tetrahydro[1,2,4]triazolo[4,3-a]pyridin-6-yl)-9-ethyl-8-[4-(trifluoromethyl)phenyl]-9H-purin-6-amine], for which, at PI3Kdelta, the pIC50 is 7.31. Also, the “Selectivity versus PI3Kalpha” value at PI3Kalpha was above 10.

For the compound `CCn1c(-c2ccc(S(C)(=O)=O)nc2)nc2c(NC3CCc4nnc(C5CC5)n4C3)ncnc21` (single isomer, unassigned) [Compound 1-30, (S or R)-N-[(6S)-3-cyclopropyl-5,6,7,8-tetrahydro[1,2,4]triazolo[4,3-a]pyridin-6-yl]-9-ethyl-8-[6-(methylsulfonyl)pyridin-3-yl]-9H-purin-6-amine], on PI3Kdelta, the negative logarithm of the IC50 (pIC50) is 8.08. In addition, the “Selectivity versus PI3Kalpha” value on PI3Kalpha is above 10.

As for `CCn1c(-c2cnc(C)nc2)nc2c(OC3CCc4nnc(C5CC5)n4C3)ncnc21` (single isomer, unassigned) [Compound 1-31, (S or R)-6-{[3-cyclopropyl-5,6,7,8-tetrahydro[1,2,4]triazolo[4,3-a]pyridin-6-yl]oxy}-9-ethyl-8-(2-methylpyrimidin-5-yl)-9H-purine], on PI3Kdelta, the pIC50 was 6.66. For the same compound, on PI3Kalpha, the “Selectivity versus PI3Kalpha” value was above 10.
